The values that follow come from US12479848B2, “Substituted fused heteroaromatic bicyclic compounds as kinase inhibitors and the use thereof” (IMPACT THERAPEUTICS (SHANGHAI), INC, priority 2019, dated 2025).

Molecules are shown by their SMILES.

The test system of assay [1] is human lung cancer cell NCI-H460. The assay can be described thus: MTT proliferation assay, NCI-H460. Format: cell-based. Particulars: Homo sapiens, NCI-H460, 96 h, 4 days, read-out: IC50 (nM), inhibition of proliferation of NCI-H460. The method, then:
(§1) The cells were seeded into 96-well cell culture plate with a density of 2000/4000 cells per well and incubated overnight in a 5% CO2 incubator at 37° C. […] 5 L diluent of each concentration was added to 120 μL of medium (25 times diluted) and mixed by shaking. The overnight cell plates were taken and the culture medium was removed, 195 μL of fresh medium was added to each well, and 5 μL of diluted medium containing the corresponding concentration of the test compound was added respectively (the final concentration of DMSO is 1%), and the culture plate was then placed in a 5% CO2 incubator at 37° C. for 4 days. After removing the original solution, 100 μL of fresh serum-free DMEM medium containing MTT (0.5 mg/mL) was added to each well, the culture was continued. […] Cell viability (%)=(ODcompound−ODbackground)/(ODDMSO−ODbackground)×100. GraphPad Prism 6.0 was used to analyze the data. The inhibitory activity of compounds on cell proliferation was plotted based on cell viability and the logarithm of compound concentration.
On the technique in general: Formazan colour is commonly taken as a measure of viable cells.

In assay [2] the test system is human prostate cancer cell DU145. Nature of the assay: MTT proliferation assay, DU145. Format: cell-based. Particulars: Homo sapiens, DU-145, 96 h, 4 days, read-out: IC50 (nM), inhibition of proliferation of DU145. The method, then:
The cells were digested by trypsinase and centrifuged at 800 rpm for 5 minutes, the supernatant was discarded, and the residual was resuspended with fresh medium (DMEM medium+10% FBS+non-essential amino acid) and counted. The cells were seeded into 96-well cell culture plate with a density of 2000 cells per well and incubated overnight in a 5% CO2 incubator at 37° C. […] 5 μL of each concentration was added to 120 μL of medium (25 times diluted) and mixed by shaking. The overnight cell plates were taken and the culture medium was removed, 195 μL of fresh medium was added to each well, and 5 μL of diluted medium containing the corresponding concentration of the test compound was added respectively (the final concentrations of compounds are shown in Table 3, the final concentration of DMSO is 1%), and the culture plate was then placed in a 5% CO2 incubator at 37° C. for 4 days. After removing the original solution, 100 μL of fresh serum-free DMEM medium containing MTT (0.5 mg/mL) was added to each well, the culture was continued. […] GraphPad Prism 6.0 was used to analyze the data. The inhibitory activity of compounds on cell proliferation was plotted based on cell viability and the logarithm of compound concentration. Cell viability %=(ODcompound−ODbackground)/(ODDMSO−ODbackground)×100.

For assay [3], the system named is human colon cancer cell LoVo. The assay can be described thus: MTT proliferation assay, LoVo. Particulars: Homo sapiens, LoVo, 96 h, 4 days, read-out: IC50 (nM), inhibition of proliferation of LoVo. The class given is cell-based. As for the experimental part:
as §1, with “5 μL” for “5 L”, “viability (%)=(ODcompound−ODbackground)/(ODDMSO-ODbackground)×100.” for “viability (%)=(ODcompound−ODbackground)/(ODDMSO−ODbackground)×100.”

A further assay concerns the target T1, ATR/ATRIP enzyme (Homo sapiens, UniProt Q13535).
T1 construct: purchased Eurofins 14-953
Nature of the assay: ATR enzyme activity experiment (HTRF). The class given is biochemical. Particulars: for IC50: HTRF, p53 substrate, 30 minutes at room temperature. As for the experimental part: The test compound was diluted to a 4× final concentration with reaction buffer (25 mM HEPES (pH8.0), 10 mM MnCl2, 1% glycerol, 0.01% Brij-35, 5 mM DTT and 0.1% BSA). […] The mixture was centrifuged at 1000 rpm for 1 minute, and reacted at room temperature protected from light for 30 minutes. Then 5 μL of EDTA stop solution (250 mM) was added to stop the reaction. […] Data were analyzed using GraphPad Prism6.0, and fitted using the curve equation: Y=Bottom+(Top−Bottom)/(1+10^((Log IC50−X)*HillSlope)) and IC50 values were calculated.

T1 sequence (Q13535 whole entry): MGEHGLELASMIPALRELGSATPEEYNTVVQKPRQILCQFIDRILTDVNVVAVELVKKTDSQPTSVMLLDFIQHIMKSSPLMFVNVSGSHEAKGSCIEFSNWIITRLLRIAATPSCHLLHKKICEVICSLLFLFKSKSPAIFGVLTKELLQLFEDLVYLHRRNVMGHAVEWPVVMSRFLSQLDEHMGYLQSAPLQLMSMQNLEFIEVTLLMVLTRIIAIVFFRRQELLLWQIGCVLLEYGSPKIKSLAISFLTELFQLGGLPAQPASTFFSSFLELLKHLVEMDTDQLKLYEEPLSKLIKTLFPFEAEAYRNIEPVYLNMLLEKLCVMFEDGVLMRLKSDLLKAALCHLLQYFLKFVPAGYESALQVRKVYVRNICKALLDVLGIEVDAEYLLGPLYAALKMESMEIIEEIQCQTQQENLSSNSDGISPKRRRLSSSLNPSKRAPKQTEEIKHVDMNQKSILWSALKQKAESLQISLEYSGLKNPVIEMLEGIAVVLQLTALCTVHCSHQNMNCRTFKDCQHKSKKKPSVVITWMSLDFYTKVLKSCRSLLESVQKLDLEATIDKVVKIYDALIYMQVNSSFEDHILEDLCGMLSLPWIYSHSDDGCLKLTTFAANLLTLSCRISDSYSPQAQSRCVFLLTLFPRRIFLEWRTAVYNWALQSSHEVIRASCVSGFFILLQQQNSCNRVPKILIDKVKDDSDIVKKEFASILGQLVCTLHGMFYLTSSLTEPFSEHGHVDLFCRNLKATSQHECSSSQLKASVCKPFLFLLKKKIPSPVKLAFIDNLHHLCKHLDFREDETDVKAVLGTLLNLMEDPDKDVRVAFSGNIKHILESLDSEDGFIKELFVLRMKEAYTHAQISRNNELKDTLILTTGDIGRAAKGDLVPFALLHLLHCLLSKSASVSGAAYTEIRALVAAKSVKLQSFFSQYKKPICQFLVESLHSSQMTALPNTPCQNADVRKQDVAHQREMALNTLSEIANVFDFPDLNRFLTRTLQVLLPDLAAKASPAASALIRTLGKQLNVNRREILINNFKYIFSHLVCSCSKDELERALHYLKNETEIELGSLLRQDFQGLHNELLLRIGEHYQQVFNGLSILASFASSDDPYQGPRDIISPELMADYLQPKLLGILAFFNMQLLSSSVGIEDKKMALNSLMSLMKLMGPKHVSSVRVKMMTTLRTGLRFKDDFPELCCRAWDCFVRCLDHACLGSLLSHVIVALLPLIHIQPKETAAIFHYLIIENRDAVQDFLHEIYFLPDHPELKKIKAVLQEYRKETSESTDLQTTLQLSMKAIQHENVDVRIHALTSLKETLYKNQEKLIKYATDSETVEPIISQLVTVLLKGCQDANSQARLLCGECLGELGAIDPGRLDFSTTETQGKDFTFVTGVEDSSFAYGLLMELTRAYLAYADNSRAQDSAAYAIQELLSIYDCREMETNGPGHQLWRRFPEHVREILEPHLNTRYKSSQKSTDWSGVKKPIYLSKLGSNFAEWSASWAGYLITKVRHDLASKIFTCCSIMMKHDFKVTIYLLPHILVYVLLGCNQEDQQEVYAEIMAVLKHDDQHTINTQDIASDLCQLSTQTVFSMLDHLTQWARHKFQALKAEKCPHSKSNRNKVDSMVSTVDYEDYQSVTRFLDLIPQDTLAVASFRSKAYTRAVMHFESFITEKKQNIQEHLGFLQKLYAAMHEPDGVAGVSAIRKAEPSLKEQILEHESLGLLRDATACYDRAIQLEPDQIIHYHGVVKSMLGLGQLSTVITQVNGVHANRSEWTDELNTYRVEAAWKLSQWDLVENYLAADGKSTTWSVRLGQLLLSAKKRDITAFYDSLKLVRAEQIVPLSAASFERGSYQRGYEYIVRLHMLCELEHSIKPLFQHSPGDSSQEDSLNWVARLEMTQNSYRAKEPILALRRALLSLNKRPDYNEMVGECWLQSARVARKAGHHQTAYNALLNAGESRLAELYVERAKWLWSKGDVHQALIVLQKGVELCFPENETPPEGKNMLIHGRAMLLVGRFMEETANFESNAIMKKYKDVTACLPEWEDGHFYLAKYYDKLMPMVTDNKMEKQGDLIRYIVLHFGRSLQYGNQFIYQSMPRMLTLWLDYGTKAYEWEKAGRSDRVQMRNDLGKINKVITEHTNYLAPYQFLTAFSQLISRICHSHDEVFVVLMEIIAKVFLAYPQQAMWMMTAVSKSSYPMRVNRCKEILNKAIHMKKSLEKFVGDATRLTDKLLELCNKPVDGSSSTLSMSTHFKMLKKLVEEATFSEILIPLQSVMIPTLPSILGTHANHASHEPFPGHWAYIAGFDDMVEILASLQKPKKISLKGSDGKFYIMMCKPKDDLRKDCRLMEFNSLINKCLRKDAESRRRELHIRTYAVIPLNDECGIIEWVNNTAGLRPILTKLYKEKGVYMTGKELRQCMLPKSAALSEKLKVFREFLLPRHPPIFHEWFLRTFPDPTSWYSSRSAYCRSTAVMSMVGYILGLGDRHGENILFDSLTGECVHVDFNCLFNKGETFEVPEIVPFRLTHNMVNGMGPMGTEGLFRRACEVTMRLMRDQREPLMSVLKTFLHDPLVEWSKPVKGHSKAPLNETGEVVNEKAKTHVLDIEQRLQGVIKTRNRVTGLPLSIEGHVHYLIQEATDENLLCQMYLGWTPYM
T1 sequence (Q8WXE1 whole entry partner): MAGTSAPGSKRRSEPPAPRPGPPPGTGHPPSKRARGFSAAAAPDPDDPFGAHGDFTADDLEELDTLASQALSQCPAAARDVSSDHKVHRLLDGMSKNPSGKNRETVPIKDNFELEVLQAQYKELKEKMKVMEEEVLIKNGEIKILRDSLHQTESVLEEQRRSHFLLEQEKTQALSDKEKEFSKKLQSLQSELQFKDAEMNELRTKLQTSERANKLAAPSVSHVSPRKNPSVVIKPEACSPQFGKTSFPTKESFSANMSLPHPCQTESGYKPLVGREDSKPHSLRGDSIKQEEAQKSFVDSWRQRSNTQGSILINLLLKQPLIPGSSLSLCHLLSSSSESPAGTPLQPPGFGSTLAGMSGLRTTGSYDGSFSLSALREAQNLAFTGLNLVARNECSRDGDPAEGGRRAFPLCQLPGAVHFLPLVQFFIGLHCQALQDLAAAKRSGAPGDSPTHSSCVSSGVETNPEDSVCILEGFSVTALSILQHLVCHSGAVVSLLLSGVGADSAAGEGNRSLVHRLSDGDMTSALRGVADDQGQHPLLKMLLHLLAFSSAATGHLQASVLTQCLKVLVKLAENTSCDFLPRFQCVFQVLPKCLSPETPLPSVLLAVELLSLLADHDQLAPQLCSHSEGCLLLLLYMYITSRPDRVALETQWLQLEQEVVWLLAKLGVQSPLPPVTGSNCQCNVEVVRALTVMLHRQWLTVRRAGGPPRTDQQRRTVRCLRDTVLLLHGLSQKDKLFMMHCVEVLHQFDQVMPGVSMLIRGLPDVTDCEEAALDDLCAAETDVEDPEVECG

As for `CCn1nccc1-c1cc(N2CCOC[C@H]2C)nn2c(-c3ccn[nH]3)cnc12` [Example 3, (R)-3-methyl-4-(8-(1-ethyl-1H-pyrazol-5-yl)-3-(1H-pyrazol-5-yl)imidazo[1,2-b]pyridazin-6-yl)morpholine], the values for the IC50 in assay [1] and in assay [2] were 1040 nM and 1100 nM, respectively.
On to `CC(C)n1nccc1-c1cc(N2CCOC[C@H]2C)nn2c(-c3ccn[nH]3)cnc12` [Example 4, (R)-3-methyl-4-(8-(1-isopropyl-1H-pyrazol-5-yl)-3-(1H-pyrazol-5-yl)imidazo[1,2-b]pyridazin-6-yl)morpholine], for which the IC50 in assay [1] turned out to be 531 nM; in assay [2], 1090 nM.
For `Cc1ccc(-c2cc(N3CCOC[C@H]3C)nn3c(-c4ccn[nH]4)cnc23)cn1` [Example 6, (R)-3-methyl-4-(8-(6-methylpyridin-3-yl)-3-(1H-pyrazol-5-yl)imidazo[1,2-b]pyridazin-6-yl)morpholine], the IC50 in assay [1] stood at 322 nM; in assay [2], 914 nM.
The corresponding values for `C[C@@H]1COCCN1c1cc(-c2ccc(S(C)(=O)=O)cc2)c2ncc(-c3ccn[nH]3)n2n1` [Example 7, (R)-3-methyl-4-(8-(4-(methylsulfonyl)phenyl)-3-(1H-pyrazol-5-yl)imidazo[1,2-b]pyridazin-6-yl)morpholine] are 864 nM and 1200 nM.
The corresponding values for `C[C@@H]1COCCN1c1cc(-c2ccccc2F)c2ncc(-c3ccn[nH]3)n2n1` [Example 8, (R)-3-methyl-4-(8-(2-fluorophenyl)-3-(1H-pyrazol-5-yl)imidazo[1,2-b]pyridazin-6-yl)morpholine] are 409 nM and 1110 nM.
On to `C[C@@H]1COCCN1c1cc(N2CCOCC2)c2ncc(-c3ccn[nH]3)n2n1` [Example 9, (R)-3-methyl-4-(8-morpholino-3-(1H-pyrazol-5-yl)imidazo[1,2-b]pyridazin-6-yl)morpholine], for which the IC50 came to 583 nM in assay [1] and 1630 nM in assay [2].
As to `Cc1ccc(-c2cc(N3CCOC[C@H]3C)nn3c(-c4cc(C)n[nH]4)ncc23)cn1` [Example 39, (R)-3-methyl-4-(7-(3-methyl-1H-pyrazol-5-yl)-4-(6-methylpyridin-3-yl)imidazo[1,5-b]pyridazin-2-yl)morpholine], the IC50 stood at 26.1 nM in assay [1], 30.7 nM in assay [3] and 3 nM against ATR/ATRIP enzyme.
The corresponding values for `Cc1ccccc1-c1cc(N2CCOC[C@H]2C)nn2c(-c3ccn[nH]3)ncc12` [Example 40, (R)-4-(7-(1H-pyrazol-5-yl)-4-(o-tolyl)imidazo[1,5-b]pyridazin-2-yl)-3-methylmorpholine] are 17.4 nM, 21.8 nM and 2 nM.
The corresponding values for `Cc1cnn(C)c1-c1cc(N2CCOC[C@H]2C)nn2c(-c3ccn[nH]3)ncc12` [Example 41, (R)-4-(4-(1,4-dimethyl-1H-pyrazol-5-yl)-7-(1H-pyrazol-5-yl)imidazo[1,5-b]pyridazin-2-yl)-3-methylmorpholine] are 48.8 nM, 49.5 nM and 2 nM.
For `Cc1ncccc1-c1cc(N2CCOC[C@H]2C)nn2c(-c3ccn[nH]3)ncc12` [Example 42, (R)-3-methyl-4-(4-(2-methylpyridin-3-yl)-7-(1H-pyrazol-5-yl)imidazo[1,5-b]pyridazin-2-yl)morpholine], the figures for the IC50 (in assay [1]; in assay [3]; at ATR/ATRIP enzyme) were 30.6 nM, 44.7 nM and 2 nM, respectively.
The corresponding values for `C[C@@H]1COCCN1c1cc(-c2ccncc2F)c2cnc(-c3ccn[nH]3)n2n1` [Example 43, (R)-4-(4-(3-fluoropyridin-4-yl)-7-(1H-pyrazol-5-yl)imidazo[1,5-b]pyridazin-2-yl)-3-methylmorpholine] are 18.2 nM, 23.1 nM and 12 nM.
Take `Cc1cc(S(C)(=O)=O)ncc1-c1cc(N2CCOC[C@H]2C)nn2c(-c3ccn[nH]3)ncc12` [Example 44, (R)-3-methyl-4-(4-(4-methyl-6-(methylsulfonyl)pyridin-3-yl)-7-(1H-pyrazol-5-yl)imidazo[1,5-b]pyridazin-2-yl)morpholine]: the IC50 is 289 nM in assay [1] and 138 nM in assay [3]. Also, the inhibition at 0.05 µM at ATR/ATRIP enzyme (read-out: Inh %, inhibitory effects on ATR kinase activity at 50 nM) was 58%.
As for `Cc1ncncc1-c1cc(N2CCOC[C@H]2C)nn2c(-c3ccn[nH]3)ncc12` [Example 45, (R)-3-methyl-4-(4-(4-methylpyrimidin-5-yl)-7-(1H-pyrazol-5-yl)imidazo[1,5-b]pyridazin-2-yl)morpholine], the IC50 was determined as 78.8 nM in assay [1], 84.2 nM in assay [3] and 5 nM against ATR/ATRIP enzyme.
In the case of `C[C@@H]1COCCN1c1cc(N2CCOCC2)c2cnc(-c3ccn[nH]3)n2n1` [Example 46, (R)-3-methyl-4-(4-morpholino-7-(1H-pyrazol-5-yl)imidazo[1,5-b]pyridazin-2-yl)morpholine], the IC50 was found to be 77.8 nM in assay [1], 72.8 nM in assay [3] and 12 nM at ATR/ATRIP enzyme.
Regarding `C[C@@H]1COCCN1c1cc(-c2cccnc2C(F)(F)F)c2cnc(-c3ccn[nH]3)n2n1` [Example 47, (R)-4-(7-(1H-pyrazol-5-yl)-4-(2-(trifluoromethyl)pyridin-3-yl)imidazo[1,5-b]pyridazin-2-yl)-3-methylmorpholine], the figures for the IC50 (in assay [1]; in assay [3]; against ATR/ATRIP enzyme) were 18.2 nM, 20.7 nM and 1 nM, respectively.
With `Cc1nc(S(C)(=O)=O)ccc1-c1cc(N2CCOC[C@H]2C)nn2c(-c3ccn[nH]3)ncc12` [Example 48, (R)-3-methyl-4-(4-(2-methyl-6-(methylsulfonyl)pyridin-3-yl)-7-(1H-pyrazol-5-yl)imidazo[1,5-b]pyridazin-2-yl)morpholine], the IC50 in assay [1] was 156 nM; in assay [3], 133 nM; against ATR/ATRIP enzyme, 11 nM.
In the case of `Cc1cc(S(C)(=O)=O)ccc1-c1cc(N2CCOC[C@H]2C)nn2c(-c3ccn[nH]3)ncc12` [Example 49, (R)-3-methyl-4-(4-(2-methyl-4-(methylsulfonyl)phenyl)-7-(1H-pyrazol-5-yl)imidazo[1,5-b]pyridazin-2-yl)morpholine], the IC50 in assay [1] stood at 43 nM; in assay [3], 32.9 nM; against ATR/ATRIP enzyme, 6 nM.
The corresponding values for `Cc1nc([S+](C)[O-])ccc1-c1cc(N2CCOC[C@H]2C)nn2c(-c3ccn[nH]3)ncc12` (stereo partly drawn) [Example 50, (3R)-3-methyl-4-(4-(2-methyl-6-(methylsulfinyl)pyridin-3-yl)-7-(1H-pyrazol-5-yl)imidazo[1,5-b]pyridazin-2-yl)morpholine] are 86.8 nM, 59.9 nM and 16 nM.
As for `C[C@@H]1COCCN1c1cc(-c2cccc(C#N)c2)c2cnc(-c3ccn[nH]3)n2n1` [Example 52, (R)-3-(2-(3-methylmorpholino)-7-(1H-pyrazol-5-yl)imidazo[1,5-b]pyridazin-4-yl)benzonitrile], the IC50 was determined as 26.3 nM in assay [1], 41.9 nM in assay [3] and 9 nM on ATR/ATRIP enzyme.
